Measurements from PubChem BioAssay (NCI).
Values joined by “and” are separate entries in the source; they are usually repeats but may differ in a detail not shown here. Identical values can stand only once.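 Compound exposure: 48 hours, 5 concentrations, 96-well plates. Abbreviation: GI50, concentration required for 50% inhibition of growth. TGI: concentration producing complete growth inhibition.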

Legend:
Experiment in all cases: DTP human tumour cell line panel, 48 h
786-0 renal = system: 786-0 renal
CAKI-1 renal = system: CAKI-1 renal
EKVX NSCLC = system: EKVX NSCLC
HOP-92 NSCLC = system: HOP-92 NSCLC
MOLT-4 leukemia = system: MOLT-4 leukemia
OVCAR-3 ovarian = system: OVCAR-3 ovarian
SK-MEL-28 melanoma = system: SK-MEL-28 melanoma
SN12C renal = system: SN12C renal
SW-620 colon = system: SW-620 colon
UACC-257 melanoma = system: UACC-257 melanoma

| SMILES | GI50 (786-0 renal) | TGI (786-0 renal) [µM] | GI50 (CAKI-1 renal) | TGI (CAKI-1 renal) [µM] | GI50 (EKVX NSCLC) | TGI (EKVX NSCLC) [µM] | GI50 (HOP-92 NSCLC) [nM] | TGI (HOP-92 NSCLC) [µM] | GI50 (MOLT-4 leukemia) | TGI (MOLT-4 leukemia) [µM] | GI50 (OVCAR-3 ovarian) | TGI (OVCAR-3 ovarian) [µM] | GI50 (SK-MEL-28 melanoma) [µM] | TGI (SK-MEL-28 melanoma) [µM] | GI50 (SN12C renal) | TGI (SN12C renal) [µM] | GI50 (SW-620 colon) | TGI (SW-620 colon) [µM] | GI50 (UACC-257 melanoma) [µM] | TGI (UACC-257 melanoma) [µM] |
| --- | --- | --- | --- | --- | --- | --- | --- | --- | --- | --- | --- | --- | --- | --- | --- | --- | --- | --- | --- | --- |
| NNC(=S)N/N=C/c1ccccn1 | 1.76 µM | > 100 | 1.66 µM | > 100 | 4.5 µM | > 100 | 887 | 8.2 | 3.34 µM | > 100 | 3.02 µM | > 100 | 4.47 | > 100 | 2.61 µM | > 100 | 3.89 µM | > 100 | 2.7 | 26.6 |
| O=C1NC(=N[C@@H]2C[C@H]2c2ccccc2)S/C1=C\c1ccc2ncccc2c1 | 2.27 µM | 6.01 | 1.03 µM | 6.46 |  |  | 3680 | 10.1 | 4.29 µM | 21.8 | 3.01 µM | 10.3 | 4.46 | > 18 | 1.68 µM | > 25 | 0.901 µM | > 19.4 | 5.17 | 18.9 |
| CCCCN(CCCC)C(=O)C(=O)C(C(=O)C(=O)OC)c1nc2ccccc2o1 (configuration not stated) |  | > 100 |  | > 100 |  |  |  | > 100 |  | > 100 |  | > 100 |  | > 100 |  | > 100 |  | > 100 |  | > 100 |
| CN1C(=O)CNS1(=O)=O |  | > 100 |  |  |  |  |  | > 100 |  | > 100 |  | > 100 |  | > 100 |  | > 100 |  | > 100 |  | > 100 |
| CCOC(=O)c1c2c(n(Cc3ccccc3)c1C)-c1nc[nH]c1C(=O)C2=O | 18.1 µM | 32.1 | 18.5 µM | 38.5 | 17.8 µM | 32 | 89.1 | 18.9 | 2.84 µM | 10.3 | 13.9 µM | 26.8 | 19.3 | 34.1 | 16.4 µM | 30 | 20.5 µM | 41.8 | 16.4 | 30 |
| CC[C@@]1(O)C(=O)OCc2c1cc1n(c2=O)Cc2cc3c(OC)cccc3nc2-1 | 0.00394 µM | 1.13 | 0.00503 µM and < 0.215 µM | 0.238 |  | 8.56 | 0.0599 | 0.685 | 0.000417 µM |  | 0.0434 µM | 1.21 | 1.72 | > 28.1 | 0.00326 µM | 3.4 | 0.0405 µM | 5.65 | 0.0646 | 4.25 |
| N#C/C(=C\c1ccc([N+](=O)[O-])cc1)n1nnc2cc(F)c(F)cc21 | 1.86 µM | 3.37 | 1.54 µM | 2.92 | 1.7 µM | 3.56 |  |  | 2.97 µM | 10.5 | 1.85 µM | 3.58 | 2.26 | 4.97 | 1.77 µM | 3.61 | 1.73 µM | 3.53 | 2.17 | 5.65 |
| COc1cc2cc(Oc3ccc(NC(=O)Nc4ccc(F)c(C(F)(F)F)c4)cc3)c(C)nc2cc1OCCN1CCOCC1 | 1.73 µM | 3.44 | 2.06 µM | 9.55 | 2.53 µM | 20.7 | 1310 | 4.96 | 1.86 µM | 11.4 | 2.94 µM | 13.6 | 1.62 | 3.13 | 2.65 µM | 15.5 | 3.34 µM | 9.86 | 1.75 | 5.17 |
| COC(=O)Nc1nc2ccc(C(=O)C3CC3)cc2[nH]1 | 0.581 µM | 30.5 | 0.305 µM | > 51.6 | 0.554 µM | > 100 |  |  | 1.25 µM | > 100 | 0.207 µM | 0.448 | 0.506 | > 63.7 | 0.717 µM | > 100 | 0.297 µM | > 100 | 0.417 | > 100 |
| N#CCC(=O)N/N=C(/C(=O)Nc1ccccc1)C1C(=O)N(c2ccccc2)N=C1N (configuration not stated) |  | > 100 |  | > 100 |  | > 100 |  | > 100 |  | > 100 |  | > 100 |  | > 100 |  | > 100 |  | > 100 |  | > 100 |
| Cn1cnc([N+](=O)[O-])c1Sc1nccn1-c1ccccc1 |  | > 100 |  | > 100 |  | > 100 |  | 81.1 |  | 74.1 |  | > 100 |  | > 100 |  | > 100 |  | > 100 |  | > 100 |
| S=c1sc2sc(=S)sc2s1 |  | > 100 |  | > 100 |  |  |  | > 100 |  | > 100 |  |  |  |  |  | > 100 |  | > 100 |  | > 100 |
| CCOC(=O)c1sc(Nc2cc(Cl)ccc2Cl)nc1C |  | > 100 |  |  |  | > 100 |  | 96.6 |  | > 100 |  | > 100 |  | > 100 |  | > 100 |  | > 100 |  | > 100 |
| COC(=O)CC12CC(NC(=O)c3csc([C@@H](C[C@H](C(C)C)N(C)C(=O)[C@@H](NC(=O)[C@H]4CCCCN4C)C(C)C)OC(C)=O)n3)(C1)C2 | 0.00606 µM and 0.014 µM | > 33.3 |  |  | 0.00949 µM and 0.0229 µM | > 33.3 | 17.4 | 4.73 | 0.00615 µM and 0.0143 µM | > 33.3 | 0.0029 µM and 0.00333 µM |  |  |  | 0.00446 µM and 0.0202 µM | > 33.3 | 0.0035 µM and 0.0102 µM | > 33.3 | 23.7 | > 33.3 |
| COc1ncnn2ccc(-c3cnc4nc(C)n(Cc5nnc(C(C)F)o5)c4c3)c12 (configuration not stated) | 0.273 µM | > 100 | 0.0613 µM | > 100 | 0.272 µM | > 36.4 | 204 | 2 | 0.231 µM | > 20.8 |  |  | 0.298 | 13.8 | 0.255 µM | > 58.1 | 0.0511 µM | > 100 | 0.265 | > 100 |
| O=C(O)c1cc(C(=O)C(=O)c2cc(C(=O)O)c(O)c3ccccc23)c2ccccc2c1O |  | > 100 |  | > 100 |  | > 100 |  | > 100 |  |  |  | > 100 |  | > 100 |  | > 100 |  | > 100 |  | > 100 |
